Article PMC3687796 (Clinical cancer research : an official journal of the …, 2011)
Where a name gives a salt, the structure may show the parent alone.

How the values were obtained:
[1] = system: tumor cell lines; experiment: In vitro cytotoxicity, Alamar blue cell viability, all tumor cell lines; format: cell-based; details: 72 hours treatment, all concentrations tested
[2] = system: SH-SY5Y xenograft; experiment: SH-SY5Y subcutaneous xenograft model; format: in vivo; details: for tumor microvessel density (CD31 pixel counts): compared with the control, 20 days treatment; for tumor growth delay / tumor weights at the end of the treatment: daily oral, 20 days, LDM TP 1.0 mg/kg, PZ 150 mg/kg, TP + PZ both
[3] = system: RH30 rhabdomyosarcoma xenograft; experiment: RH30 rhabdomyosarcoma xenograft model; format: in vivo; details: for tumor growth: LDM TP 1.0 mg/kg, PZ 150 mg/kg, TP + PZ both
[4] = PKs of topotecan and pazopanib in nontumor-bearing animals; format: in vivo, mouse; details: for difference between plasma concentrations of single agent and combination treated animals: at any time point
[5] = system: RH30; experiment: In vitro cytotoxicity, Alamar blue cell viability; format: cell-based; details: Rh30, 72 h, read-out: IC50, viability of RH30
[6] = system: RD; experiment: In vitro cytotoxicity, Alamar blue cell viability; format: cell-based; details: Homo sapiens, 72 h, read-out: IC50, viability of RD
[7] = system: KHOS; experiment: In vitro cytotoxicity, Alamar blue cell viability; format: cell-based; details: 72 h, read-out: IC50, viability of KHOS
[8] = system: BE(2)-c metastatic model; experiment: BE; format: in vivo, mouse; details: daily oral until death or endpoint
[9] = system: KHOS osteosarcoma xenograft; experiment: KHOS osteosarcoma xenograft model; format: in vivo; details: for tumor growth / tumor weight at the end of the treatment / tumor microvessel density (vWF pixel counts): 28 days; for tumor microvessel density (vWF pixel counts): compared with the control
[10] = system: ovarian cancer model; details: cited from earlier work
[11] = Pulse TP weekly oral 15 mg/kg topotecan
[12] = daily oral, LDM TP 1.0 mg/kg, TP + PZ 1.0 + 150 mg/kg

## Cc1ccc(Nc2nccc(N(C)c3ccc4c(C)n(C)nc4c3)n2)cc1S(N)(=O)=O [pazopanib, 5-[[4-[(2,3-Dimethyl-2H-indazol-6-yl)methyl-amino]-2-pyrimidinyl]amino]-2-methylbenzolsulfonamide]
[1]
  effect on viability of the tumor cell lines: did not affect the viabilities
[2]
  tumor microvessel density (CD31 pixel counts): significant reduction in microvessel densities
  tumor growth delay: tumor growth delay in the order PZ< LDM TP< TP+PZ
  tumor weights at the end of the treatment: significant difference in tumor weights compared with the control
[3]; after 31 days treatment
  WBC level (bone marrow toxicity): reduced WBC level significantly
  viable CEP levels in blood: significantly lower viable CEP levels compared with the control
[3]; daily oral, 56 days
  enhancement of survival compared with both control and LDM TP: 2 fold
  tumor growth: delayed the tumor growth
[4]
  difference between plasma concentrations of single agent and combination treated animals: no significant difference
[4]; mouse, plasma, po, 150 mg/kg
  Cmax: 134 µg/mL

## CC[C@@]1(O)C(=O)OCc2c1cc1n(c2=O)Cc2cc3c(CN(C)C)c(O)ccc3nc2-1 [topotecan, (S)-10-[(dimethylamino)methyl]-4-ethyl-4,9-dihydroxy-1H-yrano [3′,4′:6,7] indolizino[1,2-b] quinoline-3,14 (4H,12H)-dione monohydrochloride]
[5]
  IC50: 7.4 ng/mL
[6]
  IC50: 7.5 ng/mL
[7]
  IC50: 4.9 ng/mL
[1]
  effect on viability of the tumor cell lines: dose-dependent reduction in the viability
[2]
  tumor microvessel density (CD31 pixel counts): but not LDM TP caused significant reduction in microvessel densities
  tumor growth delay: tumor growth delay in the order PZ< LDM TP< TP+PZ
  tumor weights at the end of the treatment: significant tumor weight reduction compared with PZ
[8]
  survival: higher than PZ-treated animals
[9]; [11]
  tumor growth: delayed the tumor growth
  tumor weight at the end of the treatment: significantly lower tumor weight
[9]; [12]
  tumor growth: delayed the tumor growth
  tumor weight at the end of the treatment: significantly lower tumor weight
[9]; after 28 days treatment
  viable CEP levels in blood: significant reduction in viable CEP levels compared with Pulse TP
[9]; Pulse TP weekly 15 mg/kg
  tumor microvessel density (vWF pixel counts): caused reduction in microvessel densities
[9]; daily regimens
  tumor microvessel density (vWF pixel counts): caused reduction in microvessel densities
[3]; daily oral, 56 days
  tumor growth: ineffective in controlling the tumor growth
[4]; LDM TP group, single oral 1.0 mg/kg topotecan
  peak plasma concentration of topotecan: 19.75 ng/mL
[4]; TP + PZ group, single oral 1.0 mg/kg topotecan + 150 mg/kg pazopanib
  peak plasma concentration of topotecan: 33.05 ng/mL
[4]
  difference between plasma concentrations of single agent and combination treated animals: no significant difference
[10]; 1.5 mg/kg daily, oral
  food intake: decreased food intake
[10]; daily oral metronomic 0.5, 1.0 and 1.5 mg/kg
  microvascular density compared with weekly maximum-tolerated dose regimen (7.5 and 15 mg/kg): greater reduction in microvascular density
